Laboratory results reported in PubChem BioAssay (NCI).
“And” between values parts separate entries of the source, which are not always exact repeats. Equal entries are not always repeated.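 Protocol summary: plate cells (96-well), add compound at 5 concentrations, incubate 48 h, interpolate endpoints linearly. Here, GI50 denotes the concentration required for 50% inhibition of growth. TGI: concentration producing complete growth inhibition.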

Experiments:
Experiment in all cases: NCI tumour cell line growth inhibition, 48 h
NCI/ADR-RES ovarian = test system: NCI/ADR-RES ovarian
CAKI-1 renal = test system: CAKI-1 renal
DLD-1 colon = test system: DLD-1 colon
HCT-116 colon = test system: HCT-116 colon
HS 578T breast = test system: HS 578T breast
UACC-62 melanoma = test system: UACC-62 melanoma
RPMI-8226 leukemia = test system: RPMI-8226 leukemia
P388/ADR leukemia = test system: P388/ADR leukemia
COLO 205 colon = test system: COLO 205 colon
SN12C renal = test system: SN12C renal
SF-268 CNS = test system: SF-268 CNS
DMS 273 small cell lung = test system: DMS 273 small cell lung
OVCAR-5 ovarian = test system: OVCAR-5 ovarian
NCI-H226 lung = test system: NCI-H226 lung
MCF7 breast = test system: MCF7 breast
SNB-75 CNS = test system: SNB-75 CNS
OVCAR-8 ovarian = test system: OVCAR-8 ovarian
OVCAR-3 ovarian = test system: OVCAR-3 ovarian
BT-549 breast = test system: BT-549 breast
HL-60(TB) leukemia = test system: HL-60(TB) leukemia
M14 melanoma = test system: M14 melanoma
SF-295 CNS = test system: SF-295 CNS
NCI-H23 lung = test system: NCI-H23 lung
HOP-92 NSCLC = test system: HOP-92 NSCLC
PC-3 prostate = test system: PC-3 prostate
EKVX NSCLC = test system: EKVX NSCLC
MOLT-4 leukemia = test system: MOLT-4 leukemia
KM20L2 colon = test system: KM20L2 colon
SNB-78 CNS = test system: SNB-78 CNS
HT29 colon = test system: HT29 colon
HOP-62 NSCLC = test system: HOP-62 NSCLC
MDA-MB-231 breast = test system: MDA-MB-231 breast
IGROV1 ovarian = test system: IGROV1 ovarian
LOX IMVI melanoma = test system: LOX IMVI melanoma
UO-31 renal = test system: UO-31 renal
SK-MEL-28 melanoma = test system: SK-MEL-28 melanoma
786-0 renal = test system: 786-0 renal
SN12K1 renal = test system: SN12K1 renal
TK-10 renal = test system: TK-10 renal
KM12 colon = test system: KM12 colon
SW-620 colon = test system: SW-620 colon
DU-145 prostate = test system: DU-145 prostate
XF 498 CNS = test system: XF 498 CNS
OVCAR-4 ovarian = test system: OVCAR-4 ovarian
HCC-2998 colon = test system: HCC-2998 colon
NCI-H522 lung = test system: NCI-H522 lung
SK-MEL-2 melanoma = test system: SK-MEL-2 melanoma
SK-OV-3 ovarian = test system: SK-OV-3 ovarian
CCRF-CEM leukemia = test system: CCRF-CEM leukemia
K-562 leukemia = test system: K-562 leukemia
SR leukemia = test system: SR leukemia
MDA-MB-435 = test system: MDA-MB-435
HCT-15 colon = test system: HCT-15 colon
ACHN renal = test system: ACHN renal
P388 leukemia = test system: P388 leukemia
SNB-19 CNS = test system: SNB-19 CNS
U251 CNS = test system: U251 CNS
MALME-3M melanoma = test system: MALME-3M melanoma
HOP-18 NSCLC = test system: HOP-18 NSCLC
SF-539 CNS = test system: SF-539 CNS
SK-MEL-5 melanoma = test system: SK-MEL-5 melanoma
UACC-257 melanoma = test system: UACC-257 melanoma
A549 NSCLC = test system: A549 NSCLC
NCI-H460 lung = test system: NCI-H460 lung
DMS 114 small cell lung = test system: DMS 114 small cell lung
RXF 393 renal = test system: RXF 393 renal
A498 renal = test system: A498 renal
M19-MEL melanoma = test system: M19-MEL melanoma

COc1ccc2[nH]c3c(C)c4ccncc4c(C)c3c2c1
TGI (NCI/ADR-RES ovarian): 1.96 µM | TGI (CAKI-1 renal): 5.49 µM | TGI (DLD-1 colon): 1.33 µM | TGI (HCT-116 colon): 1.5 µM | GI50 (HS 578T breast): 1.13 µM | TGI (HS 578T breast): 3.55 µM | TGI (UACC-62 melanoma): 2.54 µM | TGI (RPMI-8226 leukemia): 2.73 µM | TGI (P388/ADR leukemia): 3.47 µM | TGI (COLO 205 colon): 1.6 µM | TGI (SN12C renal): 2.54 µM | TGI (SF-268 CNS): 4.65 µM | TGI (DMS 273 small cell lung): 1.95 µM | TGI (OVCAR-5 ovarian): 4.07 µM | TGI (NCI-H226 lung): 3.89 µM | TGI (MCF7 breast): 2.2 µM | TGI (SNB-75 CNS): 2.77 µM | TGI (OVCAR-8 ovarian): 1.92 µM | TGI (OVCAR-3 ovarian): 2.46 µM | GI50 (BT-549 breast): 0.757 µM | TGI (BT-549 breast): 2.11 µM | TGI (HL-60(TB) leukemia): 2.42 µM | GI50 (M14 melanoma): 0.29 µM | TGI (M14 melanoma): 1.63 µM | TGI (SF-295 CNS): 1.26 µM | TGI (NCI-H23 lung): 2.1 µM | TGI (HOP-92 NSCLC): 0.935 µM | GI50 (PC-3 prostate): 0.0843 µM | TGI (PC-3 prostate): 2.02 µM | TGI (EKVX NSCLC): 2.71 µM | TGI (MOLT-4 leukemia): 0.802 µM | TGI (KM20L2 colon): 7.32 µM | TGI (SNB-78 CNS): 11.7 µM | TGI (HT29 colon): 2.4 µM | TGI (HOP-62 NSCLC): 3.09 µM | GI50 (MDA-MB-231 breast): 0.307 µM | TGI (MDA-MB-231 breast): 1.87 µM | TGI (IGROV1 ovarian): 2.41 µM | TGI (LOX IMVI melanoma): 4.29 µM | TGI (UO-31 renal): 4.25 µM | TGI (SK-MEL-28 melanoma): 9.06 µM | GI50 (786-0 renal): 0.0436 µM | TGI (786-0 renal): 1.49 µM | TGI (SN12K1 renal): 1.31 µM | GI50 (TK-10 renal): 1.12 µM | TGI (TK-10 renal): 4.37 µM | TGI (KM12 colon): 1.68 µM | TGI (SW-620 colon): 1.56 µM | GI50 (DU-145 prostate): 0.13 µM | TGI (DU-145 prostate): 1.59 µM | TGI (XF 498 CNS): 6.66 µM | TGI (OVCAR-4 ovarian): 1.58 µM | TGI (HCC-2998 colon): 5.57 µM | TGI (NCI-H522 lung): 2.47 µM | TGI (SK-MEL-2 melanoma): 5.36 µM | TGI (SK-OV-3 ovarian): 5.16 µM | TGI (CCRF-CEM leukemia): 4.7 µM | TGI (K-562 leukemia): 1.43 µM | TGI (SR leukemia): 6.83 µM | GI50 (MDA-MB-435): 0.208 µM | TGI (MDA-MB-435): 1.67 µM | TGI (HCT-15 colon): 2.3 µM | GI50 (ACHN renal): 0.0194 µM | TGI (ACHN renal): 1.51 µM | TGI (P388 leukemia): 1.87 µM | TGI (SNB-19 CNS): 7.83 µM | TGI (U251 CNS): 4.19 µM | TGI (MALME-3M melanoma): 5.73 µM | TGI (HOP-18 NSCLC): 6.44 µM | TGI (SF-539 CNS): 1.45 µM | TGI (SK-MEL-5 melanoma): 2.86 µM | TGI (UACC-257 melanoma): 8.12 µM | TGI (A549 NSCLC): 2.15 µM | TGI (NCI-H460 lung): 0.892 µM | TGI (DMS 114 small cell lung): 4.49 µM | TGI (RXF 393 renal): 0.477 µM | TGI (A498 renal): 2.1 µM

CC/C=C\C/C=C\C/C=C\CCCCCCCC(=O)OC
TGI (NCI/ADR-RES ovarian): > 100 µM | TGI (CAKI-1 renal): > 100 µM | GI50 (M19-MEL melanoma): 45.1 µM | TGI (M19-MEL melanoma): > 100 µM | TGI (DLD-1 colon): > 100 µM | GI50 (HCT-116 colon): 70.6 µM | TGI (HCT-116 colon): > 100 µM | TGI (UACC-62 melanoma): > 100 µM | GI50 (RPMI-8226 leukemia): 19.8 µM | TGI (RPMI-8226 leukemia): 69.9 µM and > 100 µM | TGI (P388/ADR leukemia): 66.3 µM | GI50 (COLO 205 colon): > 100 µM | TGI (COLO 205 colon): > 100 µM | TGI (SN12C renal): > 100 µM | TGI (SF-268 CNS): > 100 µM | TGI (DMS 273 small cell lung): > 100 µM | TGI (OVCAR-5 ovarian): > 100 µM | TGI (NCI-H226 lung): > 100 µM | GI50 (MCF7 breast): 37.8 µM | TGI (MCF7 breast): > 100 µM | GI50 (SNB-75 CNS): > 100 µM | TGI (SNB-75 CNS): > 100 µM | GI50 (OVCAR-8 ovarian): 0.0205 µM | TGI (OVCAR-8 ovarian): 11.8 µM and > 100 µM | TGI (OVCAR-3 ovarian): > 100 µM | TGI (HL-60(TB) leukemia): 49.9 µM | TGI (SF-295 CNS): > 100 µM | TGI (NCI-H23 lung): > 100 µM | TGI (HOP-92 NSCLC): > 100 µM | TGI (EKVX NSCLC): > 100 µM | TGI (MOLT-4 leukemia): > 100 µM | GI50 (KM20L2 colon): > 100 µM | TGI (KM20L2 colon): > 100 µM | GI50 (SNB-78 CNS): > 100 µM | TGI (SNB-78 CNS): > 100 µM | TGI (HT29 colon): > 100 µM | TGI (HOP-62 NSCLC): > 100 µM | TGI (IGROV1 ovarian): > 100 µM | GI50 (LOX IMVI melanoma): 25 µM | TGI (LOX IMVI melanoma): 68.4 µM and 38.3 µM | TGI (UO-31 renal): > 100 µM | TGI (SK-MEL-28 melanoma): > 100 µM | TGI (SN12K1 renal): > 100 µM | TGI (KM12 colon): > 100 µM | TGI (SW-620 colon): > 100 µM | TGI (XF 498 CNS): > 100 µM | TGI (OVCAR-4 ovarian): > 100 µM | TGI (HCC-2998 colon): > 100 µM | TGI (NCI-H522 lung): > 100 µM | TGI (SK-MEL-2 melanoma): > 100 µM | TGI (SK-OV-3 ovarian): > 100 µM | GI50 (CCRF-CEM leukemia): 3.72 µM | TGI (CCRF-CEM leukemia): > 100 µM | GI50 (K-562 leukemia): 39.4 µM | TGI (K-562 leukemia): > 100 µM | TGI (HCT-15 colon): > 100 µM | TGI (SNB-19 CNS): > 100 µM | TGI (U251 CNS): > 100 µM | TGI (MALME-3M melanoma): > 100 µM | TGI (HOP-18 NSCLC): > 100 µM | TGI (SF-539 CNS): > 100 µM | TGI (SK-MEL-5 melanoma): > 100 µM | TGI (UACC-257 melanoma): > 100 µM | TGI (A549 NSCLC): > 100 µM | TGI (NCI-H460 lung): > 100 µM | GI50 (DMS 114 small cell lung): 83.3 µM | TGI (DMS 114 small cell lung): > 100 µM | TGI (A498 renal): > 100 µM
